Where “and” joins values, the source holds several entries; their conditions need not be identical. Identical values can stand only once.
Tests used:
NLPPp [1] = biological target: T1, NLPPp (Phytophthora nicotianae, UniProt Q9AT28); assay: Surface plasmon resonance binding to immobilized NLPPp; parameters: species or system Phytophthora parasitica; details: for Kd: SPR, steady-state affinity model, 50 mM MES, 150 mM NaCl, 5% DMSO, pH 5.8
T1 construct: made in house; host or cells: Pichia pastoris
T1 sequence (Q9AT28 20-237): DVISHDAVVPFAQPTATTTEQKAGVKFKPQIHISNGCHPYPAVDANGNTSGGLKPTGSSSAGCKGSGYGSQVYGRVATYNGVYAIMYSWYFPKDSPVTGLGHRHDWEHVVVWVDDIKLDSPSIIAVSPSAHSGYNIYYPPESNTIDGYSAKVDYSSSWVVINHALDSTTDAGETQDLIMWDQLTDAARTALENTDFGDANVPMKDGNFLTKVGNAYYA

NLPPp [2] = biological target: T1, NLPPp; assay: Tobacco leaf infiltration assay, NLPPp-induced necrosis; format: in vivo, Phytophthora parasitica; details: 400 nM NLPPp with different concentrations of compound, tobacco leaves, 24 h
BcNEP1 = system: BcNEP1; parameters: method as in doi:10.1016/j.pmpp.2010.06.003; details: cited from earlier work
NLPPp [3] = biological target: T1, NLPPp; parameters: method as in doi:10.1016/j.pmpp.2010.06.003; details: cited from earlier work

Structure (SMILES) | SPR binding to NLPPp (in words) (NLPPp [1]) | effect on NLPPp-induced necrosis (NLPPp [2]) | Kd (NLPPp [1]) | effect on necrosis-inducing action of BcNEP1 (BcNEP1) | effect against NLPPp (NLPPp [3])
Cc1ccc2occ(C3N[C@H](C(=O)O)CS3)c(=O)c2c1 (stereo partly drawn) [6C3, (4R)-2-(6-methyl-4-oxo-4H-chromen-3-yl)thiazolidine-4-carboxylic acid] | nonspecific binding | inhibited |  |  | 
Cc1oc([C@@H](O)[C@H](O)[C@H](O)CO)cc1C(=O)O [6E11, 2-methyl-5-((1S,2R,3R)-1,2,3,4-tetrahydroxybutyl)furan-3-carboxylic acid, reference compound] |  | did not affect NLPPp cytotoxicity |  |  | 
COc1ccc(Nc2ccccc2C(=O)O)cc1 [6G7, 2-((4-methoxyphenyl)amino)benzoic acid] |  | inhibited | 71.9 ± 19.1 µM |  | 
O=C(Cc1c[nH]c2ccccc12)Nc1ccccc1CCOC(=O)Cc1c[nH]c2ccccc12 [7C8, 2-(2-(1H-indol-3-yl)acetamido)phenethyl 2-(1H-indol-3-yl)acetate] |  | inhibited | 40.5 µM and ~50 µM |  | 
O=C(N/N=C/c1ccc(O)c(O)c1)c1cc2ccccc2cc1O [dynasore] |  |  |  | reduced | ineffective

— paper PMC8078777 (PLoS Pathogens, 2021)
